The source of these data is patent US5461046A, “1-,2-,3-,4-,5-,6-,7-,8-, and/or 9-substituted dibenzoxazepine compounds, pharmaceutical compositions and methods for treating pain” (G. D. Searle & Co., priority 1993, dated 1995).

As a reminder, the Kb is the equilibrium dissociation constant of an antagonist, usually derived from a functional assay.

The target in test [1] is T1, prostaglandin E2-induced contractions of segments of guinea pig ileum (Cavia porcellus, UniProt A0A286XHJ6).
T1 construct: The ilea were then quickly removed from the guinea pigs; from tissue; host or cells: ileum segments of male albino guinea pigs
T1 sequence (A0A286XHJ6 1-405): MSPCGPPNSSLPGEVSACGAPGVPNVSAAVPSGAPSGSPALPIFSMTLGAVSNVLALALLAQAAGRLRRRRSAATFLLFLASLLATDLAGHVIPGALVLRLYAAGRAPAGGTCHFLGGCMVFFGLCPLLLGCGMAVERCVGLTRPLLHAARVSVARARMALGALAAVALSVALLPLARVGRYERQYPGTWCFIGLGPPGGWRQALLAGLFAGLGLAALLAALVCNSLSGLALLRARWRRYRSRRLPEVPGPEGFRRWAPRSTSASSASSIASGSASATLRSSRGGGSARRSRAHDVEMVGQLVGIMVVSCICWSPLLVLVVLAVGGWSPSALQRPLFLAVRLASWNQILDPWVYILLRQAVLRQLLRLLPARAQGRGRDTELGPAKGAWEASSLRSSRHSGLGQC
Nature of the test: Prostaglandin (PGE) Antagonism Assay in guinea pig ileum. As to conditions: initial concentration 3 micromolar; estimated pA2 (slope -1.0 assumed) or Schild plot pA2. How it is done:
In order to determine the effectiveness of several of the compounds of the present invention ("test compounds") as prostaglandin E2 antagonists,a prostaglandin antagonism assay was conducted, as described below, to determine the ability of these compounds to inhibit prostaglandin E2 -induced contractions of segments of guinea pig ileum.
Male albino guinea pigs weighing 200 to 500 grams were sacrificed by cervical dislocation. The ilea were then quickly removed from the guinea pigs and placed in a modified Tyrode solution, a solution which is known to those skilled in the art, containing one-half of the usual amount of magnesium ions.
Segments of ileum about 2 cm long were then cut and mounted in a 10-mL tissue bath containing the modified Tyrode solution. The solution was maintained at 37° C. and aerated with a gaseous mixture of 95% oxygen and 5% carbon dioxide. Data for a control prostaglandin E2 dose response curve plotting concentration of prostaglandin E2 versus the intensity of contractions, detected isotonically, was then obtained by experimentally adjusting the dose of the prostaglandin E2 being injected into the tissue bath, in a manner known by those of skill in the art.
Solutions or suspensions containing an initial concentration (3 micromolar) of a test compound in modified Tyrode solution ("test solutions/suspensions") were then separately substituted for the control bath solution. Each test solution/suspension was then kept in constant contact with the ileum tissue, except for brief periods to drain the bath in preparation for rinsing with fresh test solution/suspension. A second prostaglandin E2 dose response curve was then generated for prostaglandin E2 in the presence of a test compound.
A dose ratio of EC50 doses was then calculated from the results of each test in a manner known by those of skill in the art. A test compound was determined to be "active" if the initial concentration used yielded at least a two-fold shift (dose ratio greater than or equal to 2) in the dose response curve for prostaglandin E2.
The compounds of the present invention which were tested in this assay, and for which results are presented in Table 2, correspond to the particular examples specified in Table 2.

The subject of test [2] is phenylbenzoquinone (PBQ)-induced writhing in mice. Nature of the test: Writhing Assay (phenylbenzoquinone-induced writhing, analgesia). It counts as in vivo, Charles River male albino mice. The following applies: Mus musculus, 25 min, 25 min before PBQ i.p., number of mice out of ten with analgesia. An excerpt: The Writhing Assay is one of the most widely-used experimental procedures for measuring the analgesic activity of different narcotic and nonnarcotic analgesic agents, and involves the continuous, chemically-induced pain of visceral origin to an animal, such as a mouse or rat. [Gyires et al., Arch. int. Pharmacodyn, 267, 131-140 (1984); C. Vander Wende et al., Fed. Proc., 15, 494 (1956); Koster et al., Fed. Proc., 18, 412 (1959); and Witken et al., J. Pharmacol. exp. Ther., 133, 400-408 (1961).] Chemicals which may be used to induce this pain include phenylbenzoquinone (PBQ) and acetic acid. As a result of the chemical irritation to the animal, a characteristic stretching and writhing of the animal (dorsiflexion of the animal's back, extension of its hindlimbs and the strong contraction of its abdominal musculature) will generally occur. […] Drugs which reduce the number of writhes of the animal appear to restore the normal nociceptive threshold of the animal.
Charles River male albino mice, weighing 20 to 30 grams were used in this assay.
Twenty-five minutes after subcutaneous or intragastric administration to ten mice of 30 mg per kilogram of body weight of a compound of the present invention ("test compound"), […] per 10 g of body weight of a 0.025% w/v solution of PBQ was injected intraperitoneally into each mouse. Ten mice which were given saline in place of a test compound of the invention were used as a control group.
Five minutes later, each mouse was individually placed into a glass beaker for observation, and the number of writhes occurring during the following ten-minute period was counted.
A test compound was considered to have produced analgesia in a mouse if, in accordance with the conditions set forth above, and under the test criteria employed for this assay, after the administration of 30 mg per kilogram of body weight of a compound of the present invention to the mouse, the number of writhes elicited by a mouse injected with PBQ was equal to, or less than, one-half the median number of writhes recorded for the saline-treated control group of mice that day, as described by Taber in "Predictive Value of Analgesic Assays in Mice and Rats," Advances in Biochemical Psychopharmacology, 8, 191 (1974).
The results for the particular compounds of the present invention analyzed in this assay, and discussed in the examples identified below which correspond thereto, are presented in Table 2 hereinbelow under the heading "WRITHING ASSAY." The fractions indicate the number of mice out of ten in which a test compound produced analgesia.
(In general: An intraperitoneal irritant provokes the stretching counted in writhing tests.)

[3] abbreviates: ip, 30 mg per kg i.g., read-out: WRITHING ASSAY Number Out of Ten I.G. (converted).
Setting [4] is: sc, 30 mg per kg s.c., read-out: WRITHING ASSAY Number Out of Ten S.C.

Structures are written as SMILES. Like-named read-outs stand apart in the source and are kept apart here.

As to `CCS(=O)(=O)CCC(=O)NNC(=O)N1Cc2ccccc2Oc2ccc(C(=O)OC)cc21` [Example 1, Dibenz [b,f][1,4]oxazepine-8,10(11H)dicarboxylic acid, 8-methyl ester, 10-[2-[3-(ethylsulfonyl)-1-oxopropyl]hydrazide]], in test [1], the Kb is 2.88 µM. In addition, the responders at 30 mg/kg is 30% in test [2] (setting [3]) and 50% in test [2] (setting [4]).

Consider `CCS(=O)(=O)CCC(=O)NNC(=O)N1Cc2ccccc2Oc2cc(C(=O)OC)ccc21` [Example 2, Dibenz[b,f][1,4]oxazepine-7,10(11H) dicarboxylic acid, 7-methyl ester, 10-[2-[3-(ethylsulfonyl)-1-oxopropyl]hydrazide]], for which the Kb in test [1] is 2 µM. The figures for the responders at 30 mg/kg in test [2] (setting [3]) and in test [2] (setting [4]) were 33.3% and 30%, respectively.

Turning to `CCS(=O)(=O)CCC(=O)NNC(=O)N1Cc2ccccc2Oc2ccc(C(=O)OC(C)(C)C)cc21` [Example 3, Dibenz[b,f][1,4]oxazepine-8,10(11H)-dicarboxylic acid, 8-(1,1-dimethylethyl) ester, 10-[2-[3-(ethylsulfonyl)-1-oxopropyl]hydrazide]], the Kb in test [1] is 1.78 µM. In addition, the values for the responders at 30 mg/kg in test [2] (setting [3]) and in test [2] (setting [4]) were 40% and 30%, respectively.

With `CCS(=O)(=O)CCC(=O)NNC(=O)N1Cc2ccccc2Oc2ccc(C(=O)O)cc21` [Example 4, Dibenz[b,f][1,4]oxazepine-8,10(11H)-dicarboxylic acid, 10-[2-[3-(ethylsulfonyl)-1-oxopropyl]hydrazide]], the figures for the responders at 30 mg/kg in test [2] (setting [3]) and in test [2] (setting [4]) were 30% and 40%, respectively.

For the compound `CCS(=O)(=O)CCC(=O)NNC(=O)N1Cc2ccccc2Oc2cc(C(=O)OC(C)(C)C)ccc21` [Example 5, Dibenz[b,f][1,4]oxazepine-7,10(11H)-dicarboxylic acid, 7-(1,1-dimethylethyl) ester, 10-[2-[3-(ethylsulfonyl)-1-oxopropyl]hydrazide]], the Kb in test [1] was 1.17 µM. The responders at 30 mg/kg in test [2] (setting [3]) is 20%; in test [2] (setting [4]), 30%.

Consider `CCS(=O)(=O)CCC(=O)NNC(=O)N1Cc2ccccc2Oc2cc(C(=O)O)ccc21` [Example 6, Dibenz[b,f][1,4]oxazepine-7,10(11H)-dicarboxylic acid, 10-[2-[3-(ethylsulfonyl)-1-oxopropyl]hydrazide]], for which, in test [1], the Kb was 2.63 µM. The responders at 30 mg/kg in test [2] (setting [3]) is 40%; in test [2] (setting [4]), 20%.

For the compound `CCS(=O)(=O)CCC(=O)NNC(=O)N1Cc2ccccc2Oc2ccc(F)cc21` [Example 7, 8-fluorodibenz[b,f][1,4]oxazepine-10(11H)-carboxylic acid, 2-[3-(ethylsulfonyl)-1-oxopropyl]hydrazide], the responders at 30 mg/kg is 40% in test [2] (setting [3]) and 60% in test [2] (setting [4]).

As to `CCS(=O)(=O)CCC(=O)NNC(=O)N1Cc2cc(Cl)ccc2Oc2ccccc21` [Example 8, 2-chlorodibenz[b,f][1,4]oxazepine-10(11H)-carboxylic acid, 2-[3-(ethylsulfonyl)-1-oxopropyl]hydrazide], the responders at 30 mg/kg in test [2] (setting [3]) and in test [2] (setting [4]) was 60% in each case.

Turning to `CCS(=O)(=O)CCC(=O)NNC(=O)N1Cc2cc(Cl)ccc2Oc2ccc(Cl)cc21` [Example 9, 2,8-dichlorodibenz[b,f][1,4]oxazepine-10(11H)-carboxylic acid, 2-[3-(ethylsulfonyl)-1-oxopropyl]hydrazide], the Kb in test [1] is 1.58 µM. In addition, the responders at 30 mg/kg was 40% in test [2] (setting [3]) and 30% in test [2] (setting [4]).

Turning to `CCS(=O)(=O)CCC(=O)NNC(=O)N1Cc2ccccc2Oc2ccc([N+](=O)[O-])cc21` [Example 10, 8-nitrodibenz[b,f][1,4]oxazepine-10(11H)-carboxylic acid, 2-[3-(ethylsulfonyl)-1-oxopropyl]hydrazide], in test [1], the Kb was 2.88 µM. The responders at 30 mg/kg in test [2] (setting [3]) and in test [2] (setting [4]) was 40% in each case.

As to `CCS(=O)(=O)CCC(=O)NNC(=O)N1Cc2ccccc2Oc2ccc(C#N)cc21` [Example 11, 8-cyanodibenz[b,f][1,4]oxazepine-10(11H)-carboxylic acid, 2-[3-(ethylsulfonyl)-1-oxopropyl]hydrazide], the responders at 30 mg/kg was 55.6% in test [2] (setting [3]) and 50% in test [2] (setting [4]).

In the case of `CCS(=O)(=O)CCC(=O)NNC(=O)N1Cc2ccccc2Oc2c(Cl)cccc21` [Example 12, 6-chlorodibenz[b,f][1,4]oxazepine-10(11H)-carboxylic acid, 2-[3-(ethylsulfonyl)-1-oxopropyl]hydrazide], the Kb in test [1] was 1.15 µM. Moreover, the responders at 30 mg/kg is 30% in test [2] (setting [3]) and 40% in test [2] (setting [4]).

On to `CCS(=O)(=O)CCC(=O)NNC(=O)N1Cc2ccccc2Oc2ccc(N)cc21` [Example 13, 8-aminodibenz[b,f][1,4]oxazepine-10(11H)-carboxylic acid, 2-[3-(ethylsulfonyl)-1-oxopropyl]hydrazide], for which the antagonist dissociation constant (Kb) in test [1] was 2.82 µM. Also, the responders at 30 mg/kg in test [2] (setting [3]) and in test [2] (setting [4]) was 40% each time.

As for `CCS(=O)(=O)CCC(=O)NNC(=O)N1Cc2ccccc2Oc2ccc(NS(C)(=O)=O)cc21` [Example 14, 8-[(methylsulfonyl)amino]dibenz[b,f][1,4]-oxazepine-10(11H)-carboxylic acid, 2-[3-(ethylsulfonyl)-1-oxopropyl]hydrazide], the responders at 30 mg/kg in test [2] (setting [3]) and in test [2] (setting [4]) was 60% in each case.

For `CCS(=O)(=O)CCC(=O)NNC(=O)N1Cc2ccccc2Sc2ccc(Cl)cc21` [Example 22, 8-chloro-10,11-dihydrodibenzo[b,f][1,4]thiazepine-10-(11H) carboxylic acid, 2-[3-(ethysulfonyl)-1-oxopropyl]hydrazide], the responders at 30 mg/kg is 60% in test [2] (setting [3]) and 30% in test [2] (setting [4]).

For the compound `CCS(=O)(=O)CCC(=O)NNC(=O)N1Cc2ccccc2S(=O)(=O)c2ccc(Cl)cc21` [Example 23, 8-chloro-10,11-dihydrodibenzo[b,f][1,4]thiazepine-10(11H) carboxylic acid, 2-[3-(ethylsulfonyl)-1-oxopropyl]hydrazide, 5,5-dioxide], the figures for the responders at 30 mg/kg in test [2] (setting [3]) and in test [2] (setting [4]) were 30% and 70%, respectively.
